{
  "source": "patent US8198325B2",
  "about": "“Unsaturated alkyl esters of 5-aminolevulinic acid, their preparation and their use” (Industry Foundation of Chonnam National University, priority 2006, dated 2012)",
  "key": {"[1]": {"system": "Malignant melanoma (TMX 13)", "assay": "Cytotoxicity test (cell survival), MTT assay, TXM 13", "format": "cell-based", "details": "24 hours", "protocol": "(§1) 3. Cytotoxicity Test (Cell Survival Test)\n(§2) Cytotoxicity was conducted through an MTT assay (Chemicon, Serologicals Corporation, USA) as follows.\n(§3) Cells were seeded at a density of 3×10^4 cells/well in 96-well plates (Nunc Do, Denmark).\n(§4) When the cells were at a confluence of about 60˜70%, 24 hours after seeding, the media was exchanged for 100 μl of fresh, serum-free media containing various respective concentrations of ALA or ALA-ester, after which the cells were incubated for an additional 24 hours.\n(§5) An MTT solution (0.5 mg/mL) was added in an amount of […] to each well, followed by incubation for 4 hours to form formazan crystals. A color-developing solution (isopropanol with 0.04 N HCl) was added in an amount of […] per well to solubilize the formazan crystals.\n(§6) The plates were measured for absorbance at 570 nm using an ELISA reader (EMAX, Molecular Device, USA).\n(4) Malignant Melanoma (TMX 13)"}, "[2]": {"system": "Human dermal fibroblast (hF)", "assay": "Cytotoxicity test (cell survival), MTT assay, hF", "format": "cell-based", "details": "24 hours", "protocol": "as §1, §2, §3, §4, §5, §6\n(2) Human Dermal Fibroblast (hF)"}, "[3]": {"system": "Squamous cell carcinoma (A431)", "assay": "Cytotoxicity test (cell survival), MTT assay, A431", "format": "cell-based", "details": "24 hours", "protocol": "as §1, §2, §3, §4, §5, §6\n(3) Squamous Cell Carcinoma (A431)"}, "[4]": {"system": "all of the cells except for HEK (hF, A431, TXM 13)", "assay": "Cytotoxicity test (MTT), summary for all of the cells except for HEK", "format": "cell-based", "details": "text summary of the tables", "protocol": "as §1, §2, §3, §4, §5, §6"}, "[5]": {"system": "skin of ICR mice (epidermis, sebaceous gland)", "assay": "Cell death in skin tissue after ointment and LED irradiation, H&E (FIGS. 9, 10)", "format": "in vivo", "protocol": "Ointments comprising ALA or the ALA esters of the present invention at various concentrations (5˜15%) were applied in a predetermined amount ([…]) to the back of shaved ICR mice.\n1 and 4 hours after the application, the back was irradiated with LED visible light (dose 25 J/cm^2).\n24, 48 and 72 hours after the irradiation, skin samples were taken from the back of the mice, stained with hematoxylin-eosin (H&E) and observed for cell death."}, "[6]": {"system": "human epithelium keratocyte (HEK), human dermal fibroblast (hF), squamous cell carcinoma (A431), malignant melanoma (TXM13)", "assay": "Fluorescence spectroscopy of PpIX synthesis in all cell lines (FIG. 2)", "format": "cell-based", "details": "range from 0.01 to 1 mM, 4 hours incubation", "protocol": "4. Fluorescence Spectroscopy\nThe synthesis of PpIX, induced by ALA and unsaturated alkyl esters of ALA in cells and skin tissues, was quantified using fluorescence spectroscopy.\nThe intensity of PpIX was measured on a fluorescence spectrophotometer (Uvikon, model 943) with excitation at 408 nm.\nEach cell line was plated at a density of 2×10^5 cells in a 10 cm^2-dish (Falcon), and when the cells reached a confluent state of 70˜80%, serum-free media containing various concentrations (0.001˜1 mM) of ALA or ALA esters was added to the cells, followed by incubation for 4 hours.\nAfter being washed once with PBS, the cells were detached with a 50% methanol solution containing 1M […] (HClO4) and scraped off using a Costar cell scraper.\nThe cells thus harvested were incubated for 5 min and centrifuged.\nThe fluorescence of the supernatant thus obtained was determined using a spectrofluorometer with excitation at 405 nm and emission at 605 nm.\nThe results are graphed in FIGS. 1 and 2."}, "Each cell line": {"system": "Each cell line", "assay": "Apoptosis and cell death by Annexin V-FITC/PI flow cytometry after visible light (FIG. 8)", "format": "cell-based", "protocol": "6. Research into Apoptosis and Cell Death A. Cell Line Each cell line cultured in 6-well plates was treated with ALA or ALA esters of the present invention, irradiated with visible light from an LED, and stained with Annexin V-FITC and PI (Annexin V-FITC Apoptosis detection Kit, BD) before the measurement of apoptosis using flow cytometry (FACSCalibur, BD, USA)."}, "[7]": {"system": "Human epidermal keratinocyte (HEK)", "assay": "Cytotoxicity test (cell survival), MTT assay, HEK", "format": "cell-based", "details": "24 hours; for MTT absorbance (OD): 570 nm; for Cell survival Avg (%) ± SD (%): Table 3", "protocol": "as §1, §2, §3, §4, §5, §6\n(1) Human Epidermal Keratinocyte (HEK)\nCell survival of the human epidermal keratinocytes treated with ALA esters of the present invention and with ALA was compared. The results are summarized in Tables 1 and 2, which are represented in different manners depending on the measurements."}, "[8]": {"system": "human epidermal keratinocyte (HEK), human dermal fibroblast (hF), squamous cell carcinoma (A431), malignant melanoma (TXM 13)", "assay": "Fluorescence microscopy of PpIX in cell lines (FIG. 5)", "format": "cell-based", "details": "normal and cancer cell lines, fluorescence microscope", "protocol": "5. Observation Under Fluorescence Microscope\nEach cell line and ICR mouse skin tissue were treated with the ALA esters of the present invention, and the regions where PpxIX was expressed were observed under a fluorescence microscope.\nThe normal cell lines, human epidermal keratinocytes (HEK) and human dermal fibroblasts (hF) and the cancer cell lines squamous cell carcinoma A431 and malignant melanoma TXM13 were treated with […] of the ALA esters of the present invention or ALA, followed by monitoring the fluorescence of the synthesized PpIX under a fluorescence microscope."}},
  "data": [
    {"smiles": "NCC(=O)CCC(=O)O", "note": "[ALA, 5-Aminolevulinic acid]", "values": [
      {"measurement": "Cell survival Avg ± SD (%)", "setting": "[1]; TXM 13, 0.01 mM", "value": "100 ± 10.22", "unit": "%"},
      {"measurement": "Cell survival Avg ± SD (%)", "setting": "[1]; TXM 13, 0.05 mM", "value": "93.12 ± 5.82", "unit": "%"},
      {"measurement": "Cell survival Avg ± SD (%)", "setting": "[1]; TXM 13, 0.1 mM", "value": "86.66 ± 6.95", "unit": "%"},
      {"measurement": "Cell survival Avg ± SD (%)", "setting": "[1]; TXM 13, 0.5 mM", "value": "83.75 ± 9.57", "unit": "%"},
      {"measurement": "Cell survival Avg ± SD (%)", "setting": "[1]; TXM 13, 1 mM", "value": "89.91 ± 6.33", "unit": "%"},
      {"measurement": "Cell survival Avg ± SD (%)", "setting": "[1]; TXM 13, 2 mM", "value": "93.6 ± 5.13", "unit": "%"},
      {"measurement": "Cell survival Avg (%) ± SD (%)", "setting": "[2]; 0.01 mM", "value": "109.74 ± 11.55", "unit": "%"},
      {"measurement": "Cell survival Avg (%) ± SD (%)", "setting": "[2]; 0.05 mM", "value": "125.18 ± 14.08", "unit": "%"},
      {"measurement": "Cell survival Avg (%) ± SD (%)", "setting": "[2]; 0.1 mM", "value": "125.27 ± 16.1", "unit": "%"},
      {"measurement": "Cell survival Avg (%) ± SD (%)", "setting": "[2]; 0.5 mM", "value": "95.218 ± 9.47", "unit": "%"},
      {"measurement": "Cell survival Avg (%) ± SD (%)", "setting": "[2]; 1 mM", "value": "99.89 ± 18.3", "unit": "%"},
      {"measurement": "Cell survival Avg (%) ± SD (%)", "setting": "[2]; 2 mM", "value": "97.66 ± 9.45", "unit": "%"},
      {"measurement": "Cell survival Avg (%) ± SD (%)", "setting": "[3]; A431, 0.01 mM", "value": "102.99 ± 0.71", "unit": "%"},
      {"measurement": "Cell survival Avg (%) ± SD (%)", "setting": "[3]; A431, 0.05 mM", "value": "104.98 ± 0.35", "unit": "%"},
      {"measurement": "Cell survival Avg (%) ± SD (%)", "setting": "[3]; A431, 0.1 mM", "value": "106.79 ± 0.15", "unit": "%"},
      {"measurement": "Cell survival Avg (%) ± SD (%)", "setting": "[3]; A431, 0.5 mM", "value": "81.6 ± 6.16", "unit": "%"},
      {"measurement": "Cell survival Avg (%) ± SD (%)", "setting": "[3]; A431, 1 mM", "value": "84.17 ± 5.12", "unit": "%"},
      {"measurement": "Cell survival Avg (%) ± SD (%)", "setting": "[3]; A431, 2 mM", "value": "82.63 ± 2.44", "unit": "%"},
      {"measurement": "Cell survival", "setting": "[4]", "value": "≥ 70", "unit": "%"},
      {"measurement": "Epidermis histology (H&E) after irradiation", "setting": "[5]; 24 hours after visible light 25 J/cm^2, FIG. 9A", "value": "apoptosis or necrosis of the epidermis"},
      {"measurement": "Sebaceous gland morphology after irradiation", "setting": "[5]; 24 hours after visible light 25 J/cm^2, FIG. 10", "value": "destroyed partially or wholly"},
      {"measurement": "PpIX synthesis, dose dependence", "setting": "[6]", "value": "increase in a dose-dependent manner"},
      {"measurement": "Photo-induced apoptosis (Annexin V/PI)", "setting": "Each cell line; 1 mM, then irradiation 5-20 J/cm^2, FIGS. 8C and D", "value": "induced the cells to undergo apoptosis (Annexin V+/PI−) or the late stage of apoptosis (Annexin V+/PI+)"},
      {"measurement": "Cell survival (flow cytometry)", "setting": "Each cell line; treated but with no irradiation with visible light, FIGS. 8A and B", "value": "≥ 85", "unit": "%"},
      {"measurement": "MTT absorbance (OD)", "setting": "[7]; 0.01 mM", "value": 3.428, "unit": "OD"},
      {"measurement": "Cell survival Avg (%) ± SD (%)", "setting": "[7]; 0.01 mM", "value": "131.83 ± 0.9", "unit": "%"},
      {"measurement": "MTT absorbance (OD)", "setting": "[7]; 0.05 mM", "value": 3.318, "unit": "OD"},
      {"measurement": "Cell survival Avg (%) ± SD (%)", "setting": "[7]; 0.05 mM", "value": "112.32 ± 0.7", "unit": "%"},
      {"measurement": "MTT absorbance (OD)", "setting": "[7]; 0.1 mM", "value": 3.457, "unit": "OD"},
      {"measurement": "Cell survival Avg (%) ± SD (%)", "setting": "[7]; 0.1 mM", "value": "132.21 ± 0.35", "unit": "%"},
      {"measurement": "MTT absorbance (OD)", "setting": "[7]; 0.5 mM", "value": 3.285, "unit": "OD"},
      {"measurement": "Cell survival Avg (%) ± SD (%)", "setting": "[7]; 0.5 mM", "value": "103.43 ± 0.15", "unit": "%"},
      {"measurement": "MTT absorbance (OD)", "setting": "[7]; 1 mM", "value": 2.802, "unit": "OD"},
      {"measurement": "Cell survival Avg (%) ± SD (%)", "setting": "[7]; 1 mM", "value": "100.94 ± 6.16", "unit": "%"},
      {"measurement": "MTT absorbance (OD)", "setting": "[7]; 2 mM", "value": 2.179, "unit": "OD"},
      {"measurement": "Cell survival Avg (%) ± SD (%)", "setting": "[7]; 2 mM", "value": "84.9 ± 5.12", "unit": "%"},
      {"measurement": "MTT absorbance (OD)", "setting": "[7]; 5 mM", "value": 1.659, "unit": "OD"},
      {"measurement": "activity at 10 µM", "setting": "[7]; Homo sapiens, HEK001, 0.01 mM, Table 2, read-out: Cell survival (% of control C, in brackets)", "value": 97.6, "unit": "%"},
      {"measurement": "activity at 2000 µM", "setting": "[7]; Homo sapiens, HEK2, 2 mM, Table 2, read-out: Cell survival (% of control C, in brackets)", "value": 62.1, "unit": "%"},
      {"measurement": "activity at 50 µM", "setting": "[7]; Homo sapiens, Keratinocyte, 0.05 mM, Table 2, read-out: Cell survival (% of control C, in brackets)", "value": 94.5, "unit": "%"},
      {"measurement": "activity at 100 µM", "setting": "[7]; Homo sapiens, Keratinocyte, 0.1 mM, Table 2, read-out: Cell survival (% of control C, in brackets)", "value": 98.5, "unit": "%"},
      {"measurement": "activity at 500 µM", "setting": "[7]; Homo sapiens, Keratinocyte, 0.5 mM, Table 2, read-out: Cell survival (% of control C, in brackets)", "value": 92.8, "unit": "%"},
      {"measurement": "activity at 1000 µM", "setting": "[7]; Homo sapiens, Keratinocyte, 1 mM, Table 2, read-out: Cell survival (% of control C, in brackets)", "value": 79.7, "unit": "%"},
      {"measurement": "activity at 5000 µM", "setting": "[7]; Homo sapiens, Keratinocyte, 5 mM, Table 2, read-out: Cell survival (% of control C, in brackets)", "value": 47.2, "unit": "%"},
      {"measurement": "PpIX fluorescence in cytoplasm", "setting": "[8]", "value": "can induce the synthesis of PpIX in both normal and cancer cell lines"}
    ]}
  ]
}
